From PubChem BioAssay (NCI)
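At the GI50, growth is halved. Definition used: TGI = concentration required for complete inhibition of growth.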

Legend:
Assay in all cases: inhibition of tumour cell growth, NCI panel, 384-well format
786-0 renal = test system: 786-0 renal
A498 renal = test system: A498 renal
A549 NSCLC = test system: A549 NSCLC
ACHN renal = test system: ACHN renal
BT-549 breast = test system: BT-549 breast
CAKI-1 renal = test system: CAKI-1 renal
CCRF-CEM leukemia = test system: CCRF-CEM leukemia
COLO 205 colon = test system: COLO 205 colon
DU-145 prostate = test system: DU-145 prostate
EKVX NSCLC = test system: EKVX NSCLC
HCC-2998 colon = test system: HCC-2998 colon
HCT-116 colon = test system: HCT-116 colon
HCT-15 colon = test system: HCT-15 colon
HL-60(TB) leukemia = test system: HL-60(TB) leukemia
HOP-62 NSCLC = test system: HOP-62 NSCLC
HOP-92 NSCLC = test system: HOP-92 NSCLC
HS 578T breast = test system: HS 578T breast
HT29 colon = test system: HT29 colon
IGROV1 ovarian = test system: IGROV1 ovarian
KM12 colon = test system: KM12 colon
LOX IMVI melanoma = test system: LOX IMVI melanoma
M14 melanoma = test system: M14 melanoma
MALME-3M melanoma = test system: MALME-3M melanoma
MCF7 breast = test system: MCF7 breast
MDA-MB-231 breast = test system: MDA-MB-231 breast
MDA-MB-435 melanoma = test system: MDA-MB-435 melanoma
MDA-MB-468 breast = test system: MDA-MB-468 breast
MOLT-4 leukemia = test system: MOLT-4 leukemia
NCI-H226 lung = test system: NCI-H226 lung
NCI-H23 lung = test system: NCI-H23 lung
NCI-H322M lung = test system: NCI-H322M lung
NCI-H460 NSCLC = test system: NCI-H460 NSCLC
NCI-H522 lung = test system: NCI-H522 lung
NCI/ADR-RES ovarian = test system: NCI/ADR-RES ovarian
OVCAR-3 ovarian = test system: OVCAR-3 ovarian
OVCAR-4 ovarian = test system: OVCAR-4 ovarian
OVCAR-5 ovarian = test system: OVCAR-5 ovarian
OVCAR-8 ovarian = test system: OVCAR-8 ovarian
PC-3 prostate = test system: PC-3 prostate
RPMI-8226 leukemia = test system: RPMI-8226 leukemia
RXF 393 renal = test system: RXF 393 renal
SF-268 CNS = test system: SF-268 CNS
SF-295 CNS = test system: SF-295 CNS
SF-539 CNS = test system: SF-539 CNS
SK-MEL-28 melanoma = test system: SK-MEL-28 melanoma
SK-MEL-5 melanoma = test system: SK-MEL-5 melanoma
SK-OV-3 ovarian = test system: SK-OV-3 ovarian
SN12C renal = test system: SN12C renal
SNB-19 CNS = test system: SNB-19 CNS
SNB-75 CNS = test system: SNB-75 CNS
SR leukemia = test system: SR leukemia
SW-620 colon = test system: SW-620 colon
T-47D breast = test system: T-47D breast
TK-10 renal = test system: TK-10 renal
U251 glioblastoma = test system: U251 glioblastoma
UACC-257 melanoma = test system: UACC-257 melanoma
UACC-62 melanoma = test system: UACC-62 melanoma
UO-31 renal = test system: UO-31 renal

CN1CCN(c2ccc(C(=O)Nc3n[nH]c4ccc(Cc5cc(F)cc(F)c5)cc34)c(NC3CCOCC3)c2)CC1
GI50 (786-0 renal): 1510 nM
TGI (786-0 renal): 2850 nM
GI50 (A498 renal): 1710 nM
TGI (A498 renal): 3090 nM
GI50 (A549 NSCLC): 1410 nM
TGI (A549 NSCLC): 2730 nM
GI50 (ACHN renal): 1540 nM
TGI (ACHN renal): 2880 nM
GI50 (BT-549 breast): 1730 nM
TGI (BT-549 breast): 3120 nM
GI50 (CAKI-1 renal): 1630 nM
TGI (CAKI-1 renal): 3000 nM
GI50 (CCRF-CEM leukemia): 1870 nM
TGI (CCRF-CEM leukemia): 3300 nM
GI50 (COLO 205 colon): 1720 nM
TGI (COLO 205 colon): 3120 nM
GI50 (DU-145 prostate): 1550 nM
TGI (DU-145 prostate): 2890 nM
GI50 (EKVX NSCLC): 1200 nM
TGI (EKVX NSCLC): 2460 nM
GI50 (HCC-2998 colon): 1030 nM
TGI (HCC-2998 colon): 2220 nM
GI50 (HCT-116 colon): 1500 nM
TGI (HCT-116 colon): 2850 nM
GI50 (HCT-15 colon): 1160 nM
TGI (HCT-15 colon): 2410 nM
GI50 (HL-60(TB) leukemia): 1830 nM
TGI (HL-60(TB) leukemia): 3240 nM
GI50 (HOP-62 NSCLC): 1430 nM
TGI (HOP-62 NSCLC): 2750 nM
GI50 (HOP-92 NSCLC): 1140 nM
TGI (HOP-92 NSCLC): 2360 nM
GI50 (HS 578T breast): 1530 nM
TGI (HS 578T breast): 2860 nM
GI50 (HT29 colon): 1300 nM
TGI (HT29 colon): 2610 nM
GI50 (IGROV1 ovarian): 1010 nM
TGI (IGROV1 ovarian): 2210 nM
TGI (KM12 colon): 1370 nM
GI50 (LOX IMVI melanoma): 1530 nM
TGI (LOX IMVI melanoma): 2870 nM
GI50 (M14 melanoma): 1690 nM
TGI (M14 melanoma): 3060 nM
GI50 (MALME-3M melanoma): 1270 nM
TGI (MALME-3M melanoma): 2530 nM
GI50 (MCF7 breast): 1140 nM
TGI (MCF7 breast): 2370 nM
GI50 (MDA-MB-231 breast): 1230 nM
TGI (MDA-MB-231 breast): 2480 nM
GI50 (MDA-MB-435 melanoma): 1690 nM
TGI (MDA-MB-435 melanoma): 3070 nM
GI50 (MDA-MB-468 breast): 1120 nM
TGI (MDA-MB-468 breast): 2330 nM
GI50 (MOLT-4 leukemia): 1360 nM
TGI (MOLT-4 leukemia): 2650 nM
GI50 (NCI-H226 lung): 727 nM
TGI (NCI-H226 lung): 2070 nM
GI50 (NCI-H23 lung): 1230 nM
TGI (NCI-H23 lung): 2480 nM
GI50 (NCI-H322M lung): 1470 nM
TGI (NCI-H322M lung): 2790 nM
GI50 (NCI-H460 NSCLC): 1570 nM
TGI (NCI-H460 NSCLC): 2950 nM
GI50 (NCI-H522 lung): 1400 nM
TGI (NCI-H522 lung): 2710 nM
GI50 (NCI/ADR-RES ovarian): 1550 nM
TGI (NCI/ADR-RES ovarian): 2900 nM
GI50 (OVCAR-3 ovarian): 1050 nM
TGI (OVCAR-3 ovarian): 2290 nM
GI50 (OVCAR-4 ovarian): 1020 nM
TGI (OVCAR-4 ovarian): 2230 nM
GI50 (OVCAR-5 ovarian): 1480 nM
TGI (OVCAR-5 ovarian): 2840 nM
GI50 (OVCAR-8 ovarian): 1660 nM
TGI (OVCAR-8 ovarian): 3040 nM
GI50 (PC-3 prostate): 1230 nM
TGI (PC-3 prostate): 2480 nM
GI50 (RPMI-8226 leukemia): 1350 nM
TGI (RPMI-8226 leukemia): 2650 nM
GI50 (RXF 393 renal): 825 nM
TGI (RXF 393 renal): 2200 nM
GI50 (SF-268 CNS): 1600 nM
TGI (SF-268 CNS): 2970 nM
GI50 (SF-295 CNS): 1680 nM
TGI (SF-295 CNS): 3050 nM
GI50 (SF-539 CNS): 1680 nM
TGI (SF-539 CNS): 3060 nM
GI50 (SK-MEL-28 melanoma): 1670 nM
TGI (SK-MEL-28 melanoma): 3040 nM
GI50 (SK-MEL-5 melanoma): 1590 nM
TGI (SK-MEL-5 melanoma): 2940 nM
GI50 (SK-OV-3 ovarian): 1430 nM
TGI (SK-OV-3 ovarian): 2760 nM
GI50 (SN12C renal): 1210 nM
TGI (SN12C renal): 2480 nM
GI50 (SNB-19 CNS): 1700 nM
TGI (SNB-19 CNS): 3110 nM
GI50 (SNB-75 CNS): 1370 nM
TGI (SNB-75 CNS): 2670 nM
GI50 (SR leukemia): 24.3 nM
TGI (SR leukemia): 55.4 nM
GI50 (SW-620 colon): 1490 nM
TGI (SW-620 colon): 2840 nM
GI50 (T-47D breast): 1350 nM
TGI (T-47D breast): 2650 nM
GI50 (TK-10 renal): 1570 nM
TGI (TK-10 renal): 2930 nM
GI50 (U251 glioblastoma): 1680 nM
TGI (U251 glioblastoma): 3060 nM
GI50 (UACC-257 melanoma): 1550 nM
TGI (UACC-257 melanoma): 2900 nM
GI50 (UACC-62 melanoma): 1600 nM
TGI (UACC-62 melanoma): 2960 nM
GI50 (UO-31 renal): 1590 nM
TGI (UO-31 renal): 2950 nM
